Test results taken from patent US5284862A, “Derivatives of 2-carboxyindoles having pharmaceutical activity” (Warner-Lambert Company, priority 1992, dated 1994).

Legend:
cortical neuronal cells = assay: glutamate-induced lactate dehydrogenase (LDH) efflux assay; format: cell-based; settings: glutamate exposure 5 minutes; LDH released into the culture medium 1 day after exposure
Experimental: The glutamate-induced lactate dehydrogenase (LDH) efflux assay is also used to measure the activity of the compounds of the present invention. Procedures for evaluating neurotoxicity in cortical neuronal cells by measuring efflux of LDH are carried out similarly as described by J. Y. Koh and D. W. Choi, J. Neurosci. Methods 1987;20:83-90. Only mature ([…] in vitro) cortical cultures were selected for study. Cells were exposed for 5 minutes to a glutamate exposure solution. Compounds tested were added to the glutamate exposure medium. In all experiments the glutamate exposure was removed and fresh buffer was added. Overall neuronal injury was quantitatively assessed by measurement of LDH released into the culture medium 1 day after glutamate exposure (see J. G. Klingman, D. M. Hartley, D. W. Choi, J. Neurosci. Methods 1989;31:47-51) using a 96-well plate reader.

AMPA receptor = assay: AMPA binding assay ([3H]-AMPA); settings: [3H]-AMPA binding; unit inferred
Text: The AMPA binding assay may also be performed to provide an activity profile for the compounds of the present invention.

[1] = molecular target: T1, strychnine insensitive glycine receptor which is located on the NMDA receptor complex (Rattus norvegicus, UniProt P35439); assay: glycine binding assay ([3H]-Gly); settings: for IC50: [3H]-glycine binding; for inhibition at 10 µM: read-out: [3H]-Gly, % Inh. at 10 μM
T1 construct: from tissue
Experimental: Specifically, the compounds of the present invention have activity as antagonists at the strychnine insensitive glycine receptor which is located on the NMDA receptor complex. As such, the compounds of the present invention are NMDA receptor antagonists. Also, the compounds of the present invention have activity as AMPA and kainate receptor antagonists.
The glycine binding assay is performed essentially as described by W. Frost White, et al, Journal of Neurochemistry 1989;53(2):503-12.

Row | SMILES | IC50 (cortical neuronal cells) | IC50 (AMPA receptor) | IC50 [1] | inhibition at 10 µM [1]
1 | [N-]=[N+]=Nc1cccc(S(=O)(=O)NC(=O)CCc2c(C(=O)O)[nH]c3cc(Cl)cc(Cl)c23)c1 | 6 µM | 150 µM | 0.079 µM | 
2 | O=C(O)/C=C/c1c(C(=O)O)[nH]c2cc(Cl)cc(Cl)c12 | 10.2 µM | 203 µM | 0.18 µM | 
3 | O=C(/C=C/c1c(C(=O)O)[nH]c2cc(Cl)cc(Cl)c12)NCc1ccccc1 |  | 213 µM |  | 84%

Stronger by IC50 (AMPA receptor), values ahead:

Row | IC50 (cortical neuronal cells) | IC50 (AMPA receptor) | IC50 [1] | inhibition at 10 µM [1] | SMILES
4 | 7.8 µM | 113 µM | 0.068 µM |  | O=C(CCc1c(C(=O)O)[nH]c2cc(Cl)cc(Cl)c12)NS(=O)(=O)c1ccccc1
5 |  | 122 µM |  | 87% | O=C(/C=C/c1c(C(=O)O)[nH]c2cc(Cl)cc(Cl)c12)NS(=O)(=O)c1ccccc1
6 | 21.5 µM | 80 µM | 0.543 µM |  | CS(=O)(=O)NC(=O)CCc1c(C(=O)O)[nH]c2cc(Cl)cc(Cl)c12
7 |  | 108 µM |  | 89% | O=C(CCCc1c(C(=O)O)[nH]c2cc(Cl)cc(Cl)c12)NS(=O)(=O)c1ccccc1
